Measured values taken from patent US9604974B2, “Compounds as modulator of JAK-STAT pathway, methods and applications thereof” (UNIVERSITY OF MYSORE, priority 2015, dated 2017).

How the values were obtained:
HepG2 cells = experiment: Cell cycle distribution by PI flow cytometry (sub-G1); type: cell-based, human; conditions: HepG2, 10 μMol/L CIMO
Method: FIG. 1 depicts the accumulation of HepG2 cells in SubG1 phase caused by Compound 1 (CIMO). HepG2 cells (5×10^5/mL) are treated with 10 μMol/L CIMO for indicated time points, after which the cells are washed, fixed, stained with PI, and analyzed for DNA content by flow cytometry.
In late apoptosis, activation of endonucleases leads to fragmentation of genomic DNA into oligomers thereby contributing to a decrease in DNA content, which in turn leads to the buildup of cells in Sub-G1 phase. In order to evaluate the effect of Compound 1 on cell cycle distribution of HepG2 cells, flow cytometric analysis is performed. HepG2 cells are treated with CIMO at different time intervals up to 48 hours. Thereafter, cells are washed, fixed with 70% ethanol, and incubated for about 30 minutes about at 37° C. with 0.1% RNaseA in PBS. Cells are then washed again, resuspended, and stained in PBS containing 25 μg/ml propidium iodide (PI) for about 30 minutes at room temperature. Cell distribution across the cell cycle after PI staining is analyzed with a Beckman Coulter flow cytometer.

phospho-STAT3 (Ser-727) = experiment: Western blot of phospho-STAT3 (Ser-727) in HepG2; type: cell-based, human; conditions: HepG2, 10 μMol/L CIMO
Method: FIG. 2 depicts the suppression of phospho-STAT3 by compound 1 (CIMO) in a dose dependent manner [A]. HepG2 cells (5×10^5/mL) are treated with the indicated concentrations of CIMO for 6 hours, after which whole-cell extracts are prepared and resolved on SDS-PAGE gel, electrotransferred onto nitrocellulose membrane, and probed for phospho-STAT3. The same blot is stripped and reprobed with STAT3 antibody to verify equal protein loading. […] HepG2 cells (5×10^5/mL) are treated with the indicated concentrations of AG490 for about 6 hours, after which Western Blotting is done as described for [A]. [C] depicts the suppression of phospho-STAT3 levels by Compound 1 (CIMO) in a time-dependent manner. HepG2 cells (5×10^5/mL) are treated with 10 μMol/L CIMO for the indicated times, after which Western blotting is done as described for [A]. [D] depicts that compound 1 (CIMO) has no effect on phospho-STAT3 (Ser-727) and STAT3 protein expression. […] HepG2 cells (1×10^5/mL) are incubated with or without 10 μMol/L CIMO for about 6 hours and then analyzed for the intracellular distribution of STAT3 by immunocytochemistry. The same slides are counterstained for nuclei with Hoechst (50 ng/mL) for about 5 minutes and analyzed under an fluorescencemicroscope. […]

[1] = system: DU145 (prostrate cancer cell line); experiment: MTT anti-proliferative assay, DU145; type: cell-based; conditions: Homo sapiens, DU-145
Method: The anti-proliferative activity of Formula I compounds are studied on HepG2 cells using MTT assay. Briefly, the cells (2.5×10^4/ml) are incubated in triplicate in a 96-well plate in the presence or absence of different concentrations of compounds in a final volume of 0.2 ml up to 72 hours at 37° C. Thereafter, 20 μl MTT solution (5 mg/ml in PBS) is added to each well. After 2 hours of incubation at 37° C., 0.1 ml lysis buffer (20% SDS, 50% dimethyl-formamide) is added; incubation is continued overnight at 37° C.; and the optical density (OD) at 570 nm is measured by Tecan plate reader.
Additionally, Compound 1 is tested on a panel of six cell lines including Hep3B, PLC/PRF5, AGS (gastric cancer cell line), DU145 (prostrate cancer cell line), MDA MB231 (breast cancer cell line) and CAL27 (head and neck cancer cell line) cells.

JAK1 = experiment: Western blot of constitutive phospho-JAK1 in HepG2; type: cell-based, human; conditions: HepG2, 10 μMol/L CIMO
Huh 7-Luc tumors = experiment: Orthotopic human HCC model, bioluminescence tumor growth; type: in vivo, athymic nu/nu female mice; conditions: 10 mg/kg intraperitoneal, five days a week; p value=0.0385
Method: All animal experiments were performed according to protocols approved by the SingHealth Institutional Animal Use and Care Committee. For drug efficacy study, eight week-old athymic nu/nu female mice (from Biolasco, Taiwan) were implanted with the Huh 7-Luc cells orthotopically as described in the below examples. When the bioluminescence signal reached 10^6, mice were treated either with vehicle (1% DMSO), 2 mg/kg of CIMO or 10 mg/kg of CIMO five days a week intraperitoneally. Tumor development was monitored twice a week by measuring the bioluminescence signals. Mice were euthanized when the humane end-point criteria is met by CO2 inhalation. Primary liver tumor and lung tissues were excised, snap-frozen and stored at −80° C. until further analysis.
The antitumor potential of CIMO is tested in vivo via. intra-peritoneal administration in an orthotopic model of human HCC using Huh 7-Luc transfected cells. 100 μl containing 3×10^6 Huh 7-Luc cells are injected subcutaneously in the right flank of Nude mice. When the tumor volume reaches approximately 1 cm^3, tumor is harvested, cut into 2 mm^3 pieces and then implanted orthotopically into the liver of Nude mice. […] The development of tumors is monitored by imaging and quantification of the bioluminescence signals using the Xenogen IVIS system (Caliper Life Sciences, CA). […]

COc1ccc(C2CNC(c3cn(Cc4ccc(-c5ccccc5C#N)cc4)c4ccccc34)OC23CCCCC3)cc1 (centres unmarked) [Compound 1]
sub-G1 cell population (HepG2 cells; 16 hours): 18.8% | sub-G1 cell population (HepG2 cells; 24 hours): 38.7% | sub-G1 cell population (HepG2 cells; 36 hours): 71% | sub-G1 cell population (HepG2 cells; 48 hours): 92.1% | phosphorylation of S727 of STAT3 (phospho-STAT3 (Ser-727)): no effect | IC50 [1]: 38.8 µM | phosphorylation of JAK1 (JAK1): significant inhibition | tumor growth versus DMSO treated controls (Huh 7-Luc tumors): significant inhibition of tumor growth
